{"source": "patent US5726012A", "about": "“Rapid, high capacity nucleic acid based assay” (E. I. du Pont de Nemours and Company, priority 1994, dated 1998)", "key": {"[1]": {"test_system": "HIV RF (infectious virus) in MT-2 cells", "assay": "Yield of infectious virus by plaque assay (yield reduction assay) in MT-2 cells", "assay_type": "cell-based, HIV-1 (strain RF)", "details": "for yield of infectious virus: 72 hours, MT-2 cells, HIV RF; for IC90: Human immunodeficiency virus 1, MT2, 72 h", "procedure": "Test compounds were dissolved in dimethylsulfoxide to 5 mg/ml and serially diluted into RPMI 1640 medium to 10 times the desired final concentration. MT-2 cells (5×10^5 /ml) in 2.3 ml were mixed with 0.3 ml of the appropriate test compound solution and allowed to sit for 30 minutes at room temperature. HIV-1 IIIB or HIV-1 RF virus (~5×10^5 plaque forming units/ml) in 0.375 ml was added to the cell and compound mixtures and incubated for one hour at 36° C. The mixtures were centrifuged at 1000 rpm for 10 minutes and the supernatants containing unattached virus were discarded. The cell pellets were suspended in fresh RPMI 1640 containing the appropriate concentrations of test compound and placed in a 36° C., 4% CO2 incubator. Virus was allowed to replicate for three days. Cultures were centrifuged for 10 minutes at 1000 rpm and the supernatants containing cell free progeny virus removed for plaque assay. Virus suspensions were serially diluted in RPMI 1640 and 1.0 ml of each dilution added to 9 ml of MT-2 cells in RPMI 1640. Cells and virus were incubated for three hours at 36° C. to allow for efficient attachment of the virus to cells. Each virus and cell mixture was aliquoted equally to two wells of a six well poly-L-lysine coated culture plate and incubated overnight at 36° C., 4% CO2. Liquid and unattached cells were removed prior to the addition of 1.5 ml of RPMI 1640 with 0.75% (w/v) Seaplaque agarose (FMC Corp) and 5% FCS. Plates were incubated for three days and a second RPMI 1640/agarose overlay added. After an additional three days at 36° C., 4% CO2, a final overlay of PBS with 0.75% Seaplaque agarose and 1 mg/ml MTT was added. The plates were incubated overnight at 36° C. Clear plaques on a purple background were counted and the number of plaque forming units of virus calculated for each sample. The virus titers of the progeny virus produced in the presence or absence of test compounds was determined by plaque assay as described above. The antiviral activity of test compounds was determined by the percent reduction in the virus titer with respect to virus grown in the absence of any inhibitors.\n(§1) MT-2 cells were infected by resuspension in medium (Dulbecco's Modified Eagles, 5% Fetal calf serum, 50 ug/ml glutamine, 50 ug/ml gentamycin) containing either 1 ×10^6 TCID 50/ ml (FIGS. 7 and 9) or 2.5×10^5 TCID 50/ml of HIV RF virus (FIGS. 8 and 9) to a final concentration of 5×10^5 cells/ml, with or without various concentrations of AZT or P9941 which is (2S,3R,4R, 5S)-N,N'-[(2-pyridylacetyl)-L-isoleucyl]-2,5-diamino-1,6-diphenyl-hexane-3,4-diol as described in WO91/18866, the disclosure of which is incorporated by reference. After incubation for four hours at 37° C., the cells were pelleted, the supernatant medium removed, and cells resuspended in an equal volume of medium ± compound without added virus. Culture was continued for a total of 72 hours at 37° C. after which time cells were pelleted, lysed by addition of 5M GED, and stored frozen at -70° C. until quantitation of HIV-1 RNA by the method described in Example 8 except that the `gag` capture/reporter probe set as described in Example 2 was employed. Supernatant medium from each sample was frozen at -120° C. until determination of yield of infectious virus by plaque assay as described in Example 11. […] Both cell associated RNA and yield of infectious virus were reduced by treatment with either AZT, a reverse transcriptase inhibitor, or P9941, an inhibitor of the HIV encoded protease. The concentration of AZT or P9941 required to inhibit HIV-1 RNA by 90% (IC90) was equivalent to the concentration of AZT or P9941 required to inhibit the yield of infectious virus by 90% (IC90). The concentrations of antiviral compound required to inhibit either HIV-1 RNA or yield of infectious virus by 90% (IC90) were very similar. For both HIV RNA and yield of infectious virus, this IC90 value was affected by the initial MOI (Table 1)."}, "[2]": {"test_system": "HIV RF (HIV-1 RNA) in MT-2 cells", "assay": "Quantitation of cell associated HIV-1 RNA in infected MT-2 cells (correlation study)", "assay_type": "cell-based, HIV-1 (strain RF)", "details": "for IC90 for HIV-1 RNA compared with IC90 for yield of infectious virus / cell associated RNA: 72 hours, MT-2 cells, HIV RF; for IC90: Human immunodeficiency virus 1, MT2, 72 h, 72 hrs after infection", "procedure": "HIV-1 infected cell lysates from MT-2 cells grown for 24, 48 and 72 hours after infection with different initial multiplicities of infection (MOI, e.g., TCID 50 per cell) of HIV-1RF were prepared by the cell pelleting method as described in Example 5. The tissue culture infectious dose (TCID 50) for HIV-1 RF stocks were determined in MT-2 cells by a modification of the method of Johnson et al., \"Infectivity Assay\", Techniques in HIV Research, Aldovina et al. (1990) wherein the tissue culture medium was not changed after four days. 40 μl of the lysate and 5 μl of 1 μM biotinylated `pol` oligo were combined with GED to a final volume of 100 μl and a GED concentration of 3M and a final biotinylated `pol` oligo concentration of 50 nM. Hybridization was carried out overnight at 37° C. in sealed polypropylene tubes. Each sample was diluted three-fold with deionized water to a final GED concentration of 1M and aliquots (120 μl) transferred to streptavidin coated microtiter plate wells. The biotin oligo-RNA complex solution was incubated with the immobilized streptavidin for two hours at room temperature, after which the plates were washed six times with DuPont ELISA plate wash buffer (phosphate buffered saline (PBS)/0.05% Tween 20) with a Denley plate washer. A second hybridization was carried out by adding 120 μl of hybridization cocktail containing 4× standard saline citrate (0.15M NaCl, 0.015 sodium citrate) (SSC), 0.66% Triton X-100 and 6.66% deionized formamide, 1 mg/ml bovine serum albumin (BSA) and 5 nM `pol` AP reporter oligo to each well. After hybridization for one hour at 37° C., the plate was again washed six times in PBS/0.05% Tween 20. Alkaline phosphatase activity was detected by addition of 100 μl of substrate detection buffer, consisting of: 0.2 mM 4-methylumbelliferyl phosphate (MUBP, JBL Scientific) in 2.5M diethanolamine pH 8.9 (JBL), 10 mM MgCl2, 5 mM Zinc acetate dihydrate, and 5 mM n-hydroxyethyl-ethylene-diamine-triacetic acid. The plates were incubated at 37° C. Fluorescence was measured using a microplate fluorometer (Dynateck) exciting at 365 nm and emitting at 450 nm. […] At MOI's greater than 1 for cells cultured 72 hours after infection the level of HIV-1RNA was diminished by cell death that occurs as a result of extensive virus replication.\nas §1, with “For both HIV RNA and yield of infectious virus, this IC90 value was affected by the initial MOI (Table 1).” left out"}}, "note": "Where two headings read alike, the source gives them in different places."}
{"compound": "Cc1cn([C@H]2C[C@H](N=[N+]=[N-])[C@@H](CO)O2)c(=O)[nH]c1=O", "note": "[AZT]", "values": [{"measurement": "yield of infectious virus", "setting": "[1]", "result": "reduced"}, {"measurement": "IC90", "setting": "[1]; read-out: IC90, PFU, 72 hrs after infection, MOI = 0.5", "result": 0.09, "unit": "µg/mL"}, {"measurement": "IC90", "setting": "[1]; read-out: IC90, PFU, 72 hrs after infection, MOI = 2.0", "result": 0.28, "unit": "µg/mL"}, {"measurement": "IC90 for HIV-1 RNA compared with IC90 for yield of infectious virus", "setting": "[2]", "result": "equivalent"}, {"measurement": "cell associated RNA", "setting": "[2]", "result": "reduced"}, {"measurement": "IC90", "setting": "[2]; MOI = 0.5", "result": 0.12, "unit": "µg/mL"}, {"measurement": "IC90", "setting": "[2]; MOI = 2.0", "result": 0.2, "unit": "µg/mL"}]}
{"compound": "CC[C@H](C)[C@H](NC(=O)Cc1ccccn1)C(=O)N[C@@H](Cc1ccccc1)[C@@H](O)[C@H](O)[C@H](Cc1ccccc1)NC(=O)[C@@H](NC(=O)Cc1ccccn1)[C@@H](C)CC", "note": "[P9941, (2S,3R,4R, 5S)-N,N'-[(2-pyridylacetyl)-L-isoleucyl]-2,5-diamino-1,6-diphenyl-hexane-3,4-diol]", "values": [{"measurement": "yield of infectious virus", "setting": "[1]", "result": "reduced"}, {"measurement": "IC90", "setting": "[1]; 72 hrs after infection, MOI = 0.5, read-out: IC90, PFU", "result": 0.38, "unit": "µg/mL"}, {"measurement": "IC90", "setting": "[1]; 72 hrs after infection, MOI = 2.0, read-out: IC90, PFU", "result": 1, "unit": "µg/mL"}, {"measurement": "IC90 for HIV-1 RNA compared with IC90 for yield of infectious virus", "setting": "[2]", "result": "equivalent"}, {"measurement": "cell associated RNA", "setting": "[2]", "result": "reduced"}, {"measurement": "IC90", "setting": "[2]; MOI = 0.5", "result": 0.55, "unit": "µg/mL"}, {"measurement": "IC90", "setting": "[2]; MOI = 2.0", "result": 1.5, "unit": "µg/mL"}]}
